These results are taken from patent US10508113B2, “Inhibitors of tyrosine kinase 2 mediated signaling” (AbbVie Inc., priority 2018, dated 2019).

SMILES strings stand for the structures. A value given as a limit tells only on which side of the number the result lay.

In the assay the target is T1, Jak1 (Homo sapiens, UniProt P23458).
T1 construct: endogenous in cells; host or cells: TF1 cells
T1 sequence (P23458 whole entry): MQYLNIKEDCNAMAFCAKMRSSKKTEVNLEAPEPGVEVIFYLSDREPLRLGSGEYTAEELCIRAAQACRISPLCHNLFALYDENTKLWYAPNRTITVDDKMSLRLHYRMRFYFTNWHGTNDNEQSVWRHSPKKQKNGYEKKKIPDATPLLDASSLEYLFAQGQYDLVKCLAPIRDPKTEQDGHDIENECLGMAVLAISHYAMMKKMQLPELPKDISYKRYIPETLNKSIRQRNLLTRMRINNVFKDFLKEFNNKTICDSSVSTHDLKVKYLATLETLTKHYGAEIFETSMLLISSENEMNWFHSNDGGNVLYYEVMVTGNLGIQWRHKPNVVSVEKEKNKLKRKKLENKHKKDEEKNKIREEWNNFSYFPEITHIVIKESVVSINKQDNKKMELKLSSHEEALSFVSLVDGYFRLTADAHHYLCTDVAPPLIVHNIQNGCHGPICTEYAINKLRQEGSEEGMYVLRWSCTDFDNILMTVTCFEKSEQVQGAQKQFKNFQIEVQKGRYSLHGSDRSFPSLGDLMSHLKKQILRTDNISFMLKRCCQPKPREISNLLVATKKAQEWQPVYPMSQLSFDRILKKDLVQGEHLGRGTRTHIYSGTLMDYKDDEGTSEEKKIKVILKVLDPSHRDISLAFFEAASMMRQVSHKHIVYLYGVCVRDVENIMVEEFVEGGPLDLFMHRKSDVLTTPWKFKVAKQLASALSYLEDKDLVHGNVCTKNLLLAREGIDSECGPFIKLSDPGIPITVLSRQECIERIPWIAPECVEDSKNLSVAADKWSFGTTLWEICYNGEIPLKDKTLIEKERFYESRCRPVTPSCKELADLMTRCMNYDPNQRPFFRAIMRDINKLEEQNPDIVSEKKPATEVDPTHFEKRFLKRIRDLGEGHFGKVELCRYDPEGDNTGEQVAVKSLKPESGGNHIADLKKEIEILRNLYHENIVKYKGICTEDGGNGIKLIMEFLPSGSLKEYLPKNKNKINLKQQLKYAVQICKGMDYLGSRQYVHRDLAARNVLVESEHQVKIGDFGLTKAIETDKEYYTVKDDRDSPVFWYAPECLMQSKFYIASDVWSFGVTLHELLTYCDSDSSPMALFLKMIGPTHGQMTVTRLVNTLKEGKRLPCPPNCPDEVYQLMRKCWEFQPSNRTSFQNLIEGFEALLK
Put plainly: Jak1 (PSTAT3 TF1) alpha screen assay: inhibition of IL-6 induced phosphorylation of STAT3 in TF1 cells. To be noted: calculated from tabulated EC50 data (Jak1 / Tyk2). Format: cell-based. As for the experimental part: 2. JAK1 (PSTAT3 TF1) ALPHA SCREEN ASSAY
IL-6 is known to transduce its signal through IL-6 receptor via Jak1. Activity against Jak1 was therefore measured by determining inhibition of IL-6 induced phosphorylation of STAT3 in TF1 cells.
Cell Type: TF1 Cells; Culture Medium: RPMI 1640 Medium, 2mM L-glutamine, 10% heat- inactivated fetal bovine serum (FBS), 10 mM hydroxyethyl piperazineethanesulfonic acid (HEPES), and 2 ng/mL recombinant human interleukin-6(IL-6); Assay Medium: Dulbecco's Modified Eagle Medium (DMEM) medium with 2 mM L-glutamine, 10 mM HEPES, 100 U/mL penicillin/streptomycin, 1.5 g/L sodium bicarbonate, 4.5 g/L glucose, 1 mM sodium pyruvate, 10% heat-inactivated FBS; Compound Preparation: Compounds are dissolved in 100% dimethyl sulfoxide (DMSO).
Day One—Starve Cells: 4 Flasks for one 384 plate (spin down @1000 rpm for 10 minutes and add RPMI 1640 Medium, 2 mM L-glutamine, 10% FBS, 10 mM HEPES with no IL-6 -incubate overnight).
Day Two—Compound Dilutions:
i. Manual 8-point 1:5 dilution curve: 5 mM top concentration dispensed in row A of a
Corning 96-well polypropylene plate, columns 2-12. DMSO dispensed in position A01 for low and high controls. Compounds were serially diluted 1:5 by adding 10 μL stock to […] DMSO down the plate.
ii. Media dilution of compounds: Serially diluted compounds were further diluted 1:12.5 in assay medium by adding 4 μL compound to 46 μL assay medium in a Corning 96-well polypropylene plate.
384 Alpha Screen Plate Set up: Transfer 2.5 μL/well of compound solution from assay media dilution plate. Replicates were vertical, one column of the 96-well dilution plate goes into one column on the 384-well plate twice. Plated 1×10^5 starved cells/well in 5 μL. Washed cells in 10 mL DMEM medium after spinning down. Brought cell pellet up in assay media. Counted live cells. Multiplied by dilution factor and 10,000 (constant) to get the concentration of viable cells. Multiplied by volume of assay media used to bring up cells to get the total number of live cells. Divided by 20,000,000 cells/mL to get the volume needed. Cells were plated at 5 μL/well in gray Alpha Screen 384-well plate. Spinned the plate to bring the contents to the bottom of the wells at 300 rpm for 60 seconds. Top final compound concentration: 25 μM. Sealed with adhesive and tapped gently. Incubated plate at 37° C. for 30 minutes. c. IL-6 Stimulation (pSTAT3)
Once cells were in incubator, immediately prepared working stock of IL-6 (100 ng/mL final concentration). IL-6 stock=10 μg/mL of IL-6 in phosphate buffered saline with 0.1% bovine serum albumin. Diluted 1:25 by adding 60 μL stock IL-6 to 1440 μL assay media. Added 2.5 μL IL-6 to each well. Spinned plate at 300 rpm briefly; tapped the plate gently before covering with an adhesive seal. Incubated plate at 37° C. for 30 minutes.
Added 2.5 μL of 5X Lysis buffer to each well. Incubated at room temperature on orbital shaker for 10 minutes.
e. Protein (A) Acceptor Beads Preparation:
Phosphorylated Signal Transducer and Activator of Transcription 3 (pSTAT3) was quantified using the PerkinElmer SureFire pSTAT3 (Tyrosine 705) Assay. Calculated total volume needed (wells×[…]×25%). Divided total volume by 5 to get volume of activation buffer. Subtracted volume of activation buffer from total volume and divide by 40 to get volume of acceptor beads (add last). Total volume−acceptor bead volume−activation buffer=volume of reaction buffer. Added 15 μL to each well and covered with foil. Shaked on orbital shaker for 2 hours at 500 rpm.
f. Streptavidin Donor Beads Preparation:
Calculated total volume needed (wells×[…]×25%). Divided total volume by 20 to get volume of donor beads (add last). Subtracted volume of donor beads from total volume to get volume of dilution buffer. Added 6 μL to each well and covered with foil. Shaked on orbital shaker overnight at 500 rpm.
Read plate on a Perkin Elmer Envision. […]
For the compound `CO[C@]1(c2cc(C)cc(-c3cn(C)c4cnc(NC(N)=O)cc34)n2)CCOC1` [Example 1b.3, (S)-1-(3-(6-(3-methoxytetrahydrofuran-3-yl)-4-methylpyridin-2-yl)-1-methyl-1H-pyrrolo[2,3-c]pyridin-5-yl)urea], the “Tyk2 selectivity over Jak1” value was 10-fold. As for `CC[C@@]1(c2cccc(-c3cn(C)c4cnc(NC(C)=O)cc34)n2)CCOC1` [Example 2.3, (S)-N-(3-(6-(3-ethyltetrahydrofuran-3-yl)pyridin-2-yl)-1-methyl-1H-pyrrolo[2,3-c]pyridin-5-yl)acetamide], the “Tyk2 selectivity over Jak1” value is reported as 188-fold. As for `COc1cc(-c2cn(C3COC3)c3cnc(NC(C)=O)cc23)nc([C@]2(OC)CCOC2)c1` [Example 5, (R)-N-(3-(4-methoxy-6-(3-methoxytetrahydrofuran-3-yl)pyridin-2-yl)-1-(oxetan-3-yl)-1H-pyrrolo[2,3-c]pyridin-5-yl)acetamide], the figure is >901-fold; as for `COc1cc(-c2cn([C@@H]3CCOC3)c3cnc(NC(C)=O)cc23)nc([C@]2(OC)CCOC2)c1` [Example 5.2, N-(3-(4-methoxy-6-((R)-3-methoxytetrahydrofuran-3-yl)pyridin-2-yl)-1-((R)-tetrahydrofuran-3-yl)-1H-pyrrolo[2,3-c]pyridin-5-yl)acetamide], >641-fold.

With `CO[C@]1(c2cc(OCC3COC3)cc(-c3cn(C)c4cnc(NC(C)=O)cc34)n2)CCOC1` [Example 6.2, (S)-N-(3-(6-(3-methoxytetrahydrofuran-3-yl)-4-(oxetan-3-ylmethoxy)pyridin-2-yl)-1-methyl-1H-pyrrolo[2,3-c]pyridin-5-yl)acetamide], the “Tyk2 selectivity over Jak1” value is 50-fold. In the case of `CO[C@@]1(c2cc(OC3COC3)cc(-c3cn(C)c4cnc(NC(C)=O)cc34)n2)CCOC1` [Example 8, (R)-N-(3-(6-(3-Methoxytetrahydrofuran-3-yl)-4-(oxetan-3-yloxy)pyridin-2-yl)-1-methyl-1H-pyrrolo[2,3-c]pyridin-5-yl)acetamide], the “Tyk2 selectivity over Jak1” value was 244-fold. Turning to `CO[C@@]1(c2cc(C(F)F)cc(-c3cn(C)c4cnc(NC(N)=O)cc34)n2)CCOC1` [Example 12.5, (R)-1-(3-(4-(difluoromethyl)-6-(3-methoxytetrahydrofuran-3-yl)pyridin-2-yl)-1-methyl-1H-pyrrolo[2,3-c]pyridin-5-yl)urea], the “Tyk2 selectivity over Jak1” value is on record as 909-fold.

With `COc1cc(-c2cn(C)c3cnc(NC(N)=O)cc23)nc([C@@]2(OC)CCOC2)c1` [Example 12.7, (S)-1-(3-(4-methoxy-6-(3-methoxytetrahydrofuran-3-yl)pyridin-2-yl)-1-methyl-1H-pyrrolo[2,3-c]pyridin-5-yl)urea], the “Tyk2 selectivity over Jak1” value was 81-fold. Regarding `CO[C@@]1(c2cc(C#N)cc(-c3cn([C@@H]4CC4(F)F)c4cnc(NC(N)=O)cc34)n2)CCOC1` [Example 12a.3, 1-(3-(4-cyano-6-((R)-3-methoxytetrahydrofuran-3-yl)pyridin-2-yl)-1-((R)-2,2-difluorocyclopropyl)-1H-pyrrolo[2,3-c]pyridin-5-yl)urea], the “Tyk2 selectivity over Jak1” value is >1515-fold. Turning to `CO[C@@]1(c2cc(C(F)F)cc(-c3cn([C@@H]4CCOC4)c4cnc(NC(N)=O)cc34)n2)CCOC1` [Example 12b.2, 1-(3-(4-(difluoromethyl)-6-((R)-3-methoxytetrahydrofuran-3-yl)pyridin-2-yl)-1-((R)-tetrahydrofuran-3-yl)-1H-pyrrolo[2,3-c]pyridin-5-yl)urea], the “Tyk2 selectivity over Jak1” value is 2667-fold.

`CO[C@@]1(c2cc(C(F)F)cc(-c3cn([C@H]4CCOC4)c4cnc(NC(N)=O)cc34)n2)CCOC1` [Example 12b.3, 1-(3-(4-(difluoromethyl)-6-((R)-3-methoxytetrahydrofuran-3-yl)pyridin-2-yl)-1-((S)-tetrahydrofuran-3-yl)-1H-pyrrolo[2,3-c]pyridin-5-yl)urea]: the “Tyk2 selectivity over Jak1” value is reported as 1214-fold. The value for `CO[C@@]1(c2cc(C(F)F)cc(-c3cn(C4COC4)c4cnc(NC(N)=O)cc34)n2)CCOC1` [Example 12b.4, (R)-1-(3-(4-(difluoromethyl)-6-(3-methoxytetrahydrofuran-3-yl)pyridin-2-yl)-1-(oxetan-3-yl)-1H-pyrrolo[2,3-c]pyridin-5-yl)urea] was 889-fold; that for `Cn1cc(-c2cccc(C3(O)COC3)n2)c2cc(NC(N)=O)ncc21` [Example 14, 1-(3-(6-(3-hydroxyoxetan-3-yl)pyridin-2-yl)-1-methyl-1H-pyrrolo[2,3-c]pyridin-5-yl)urea] was 20-fold; that for `NC(=O)Nc1cc2c(-c3cccc(C4(O)COC4)n3)cn([C@@H]3CCOC3)c2cn1` [Example 15, (R)-1-(3-(6-(3-Hydroxyoxetan-3-yl)pyridin-2-yl)-1-(tetrahydrofuran-3-yl)-1H-pyrrolo[2,3-c]pyridin-5-yl)urea] was 80-fold. With `CO[C@@]1(c2cc(C)cc(-c3cn([C@H]4C[C@H](C#N)C4)c4cnc(NC(C)=O)cc34)n2)CCOC1` [Example 17.4, N-(1-((trans)-3-cyanocyclobutyl)-3-(6-((R)-3-methoxytetrahydrofuran-3-yl)-4-methylpyridin-2-yl)-1H-pyrrolo[2,3-c]pyridin-5-yl)acetamide], the “Tyk2 selectivity over Jak1” value was 157-fold. For the compound `CO[C@@]1(c2cc(C)cc(-c3cn([C@H]4C[C@@H](C#N)C4)c4cnc(NC(C)=O)cc34)n2)CCOC1` [Example 17.5, N-(1-((cis)-3-cyanocyclobutyl)-3-(6-((R)-3-methoxytetrahydrofuran-3-yl)-4-methylpyridin-2-yl)-1H-pyrrolo[2,3-c]pyridin-5-yl)acetamide], the “Tyk2 selectivity over Jak1” value was 6400-fold.

Turning to `COc1cc(-c2cn(C)c3cnc(NC(C)=O)cc23)nc([C@]2(OC)CCOC2)c1` [Example 20, (R)-N-(3-(4-Methoxy-6-(3-methoxytetrahydrofuran-3-yl)pyridin-2-yl)-1-methyl-1H-pyrrolo[2,3-c]pyridin-5-yl)acetamide], the “Tyk2 selectivity over Jak1” value is recorded as 328-fold.
